The subject of data set [1] is smad2. As to the kind of experiment: AAV6-GFP-U6-mSMAD2_shRNA treatment of Min6 cells, Western blot and RT-PCR. The format is cell-based. On the procedure: (§1) FIGS. 19A-19C. AAV6-GFP-U6-mSMAD2_shRNA treatment in vitro blocks smad2 expression in MIN6 and Beta-TC cell lines. […] Phospho smad2 expression is nearly absent in Min6 cells after AAV6-GFP-U6-mSMAD2_shRNA treatment (B). […] Similar experiments can be performed in human beta cell lines (EndoC-bH5, Human Cell Design) and primary human beta cells.
(§2) FIGS. 19A-19C show results from experiments where Min6 cells or beta-TC cells were treated with AAV6-GFP-U6-mSMAD2_shRNA for three days. A lysate was prepared from total or sorted cells. RT-PCR, and Western blot for Smad2, phospho Smad2 and Beta-actin was performed. […] Phospho smad2 expression is nearly absent in Min6 cells after AAV6-GFP-U6-mSMAD2_shRNA treatment (FIG. 19B).
Background: A western blot detects proteins with antibodies after separation by electrophoresis.

In data set [2] the test system is smad2. In words: AAV6-GFP-U6-mSMAD2_shRNA treatment of beta-TC cells, Western blot. Type of data set: cell-based. The following applies: beta-TC cells sorted after transfection, treated for three days, Western blot (FIG. 19A). The procedure:
as §1, §2

“AAV6-GFP-U6-mSMAD2_shRNA: AAV6 construct with smad2 shRNA sequence SEQ ID NO: 34, targeting sequence SEQ ID NO: 35 (DNA CCGGTGGTGTTCAATCGCATACTATCTCGAGATAGTATGCGATTGAACACCATTTTTG)”: the smad2 expression result with smad2 [1] (Min6 cells sorted after transfection, treated for three days, Western blot (FIG. 19A)) was “near complete ablation”; with smad2 [2], “near complete ablation”. In the data set on smad2 [1] (Min6 cells, treated for three days, Western blot (FIG. 19B)), the “Phospho smad2 expression” value is recorded as “nearly absent”. The “RT-PCR quantification of MIN6 mRNA (smad2)” value in the data set with smad2 [1] (sorted MIN6 cells, treated for three days (FIG. 19C)) is on record as “complete absence”.

For the origin of these results see patent publication US20240191226A1, “SMAD2 INHIBITION IN BETA CELLS FOR TYPE 2 DIABETES THERAPY” (University of Pittsburgh - Of the Commonwealth System of …, priority 2021, published 2024).
